According to patent publication US10952992B2, “Methods of treating intraocular pressure with activators of Tie-2” (Aerpio Pharmaceuticals, Inc., priority 2015, dated 2021):
Counter-ions that a name gives are not always drawn.

Tested on: intraocular pressure in normotensive New Zealand White rabbits
Experiment: Example 3 intraocular pressure after repeated topical and subcutaneous administration (pneumotonometer)
Format: in vivo
Experimental: To measure the tolerability and effect of Compound 1 (sodium salt) on intraocular pressure following repeated topical and subcutaneous administration, normotensive New Zealand White rabbits were treated with Compound 1 (sodium salt). Animals were acclimated 1 to 2 times per day to the intraocular pressure (IOP) measurement procedures prior to initiation of the study to determine baseline IOP levels. IOP acclimation was performed in the two weeks prior to study start for a total of 5 days. Animals with unacceptable IOP values were excluded from the study. Prior to taking all IOP measurements, 1 to 2 drops of a 0.5% proparacaine solution were applied to the eye as a topical anesthetic. OP measurements were performed with a pneumotonometer. Test and control formulations were administered to the animals once or twice daily topically into both eyes or subcutaneously starting on Day 1 according to TABLE 20 and TABLE 21 below. PM dosing, where applicable, was performed ˜8 hours after AM dosing. IOP measurements were performed twice (AM and PM) at baseline (prior to the start of dosing), twice (AM and PM) on Days 1 and 7, and once daily (AM) on Days 2-6 and Day 8. Prior to taking all IOP measurements, 1 to 2 drops of a 0.5% proparacaine solution were applied to the eye as a topical anesthetic. IOP measurements were performed with a pneumotonometer. AM IOP measurements were performed 2 hours after AM dosing; the only exceptions were Day 8 AM measurements, which were performed 24 hours after the final dose. PM IOP measurements were performed ˜5 hours (baseline and Day 1) or ˜4 hours (Day 7) after AM IOP measurements, prior to PM dosing, with at least 15 minutes elapsing between anesthetic application for PM IOP measurements and PM dosing. The final round of slit-lamp examinations was performed on Day 8.

COC(=O)N[C@@H](Cc1ccccc1)C(=O)N[C@@H](Cc1ccc(NS(=O)(=O)O)cc1)c1csc(-c2cccs2)n1 [Compound 1 sodium salt]
reduction in IOP values compared to vehicle control (10 mg/kg subcutaneous): slightly more consistent | lower IOP values compared to Group 1 (Vehicle) (Group 2: 0.45 mg/eye topical BID, over the course of dosing): not | IOP values compared to Group 1 (Vehicle) (Group 3: 1.2 mg/eye topical BID, over the course of dosing): lower IOP values | IOP values compared to Group 1 (Vehicle) (Group 4: 1.2 mg/eye topical QD, over the course of dosing): lower IOP values | IOP values compared to Group 1 (Vehicle) (Group 5: 10 mg/kg subcutaneous BID, early part of the study, difference decreased towards the end): Lower IOP values | apparent reduction in intraocular pressure values (Groups 3 and 4 (1.2 mg/eye topical BID, QD), Day 7 and Day 8 (24 hours after the end of dosing)): persisted | effect on intraocular pressure (topical 1.2 mg/eye, QD or BID): reduce intraocular pressure
